Patent publication US20220249680A1, “ANTIBODY-ALK5 INHIBITOR CONJUGATES AND THEIR USES” (Synthis Therapeutics, Inc., priority 2019, published 2022)

How the values were obtained:
[1] = test system: primary mouse CD4+ T cells; assay: MTS proliferation assay, TGF-β1 treated primary mouse CD4+ T cells; format: cell-based
Description: Compounds A-D were tested to determine whether they could inhibit TGF-β signaling in primary mouse CD4^+ T cells.
Primary mouse CD4^+ T cells were isolated from the spleens of C57/B6 mice using the RoboSep™ cell isolation system (Stemcell Technologies). 0.5 μg/ml of hamster anti-mouse CD3e antibody (145-2C11; eBioscience) was coated onto a 96 well flat bottom plate overnight. 1×10^5 purified CD4^+ T cells were incubated with 1 μg/ml soluble hamster anti-mouse CD28 antibody (37.51, BD Biosciences), 1 nM TGF-β1 and 8-fold serial dilutions of Compounds A-D. After 72 hours, cell proliferation was measured using an MTS assay (Promega) in accordance with the manufacturer's instructions.

ALK5 = molecular target: T1, ALK5 (Homo sapiens, UniProt P36897); assay: recombinant kinase assays (IC50 and Ki); format: biochemical; details: Compound C versus Compound N
T1 sequence (P36897 34-503): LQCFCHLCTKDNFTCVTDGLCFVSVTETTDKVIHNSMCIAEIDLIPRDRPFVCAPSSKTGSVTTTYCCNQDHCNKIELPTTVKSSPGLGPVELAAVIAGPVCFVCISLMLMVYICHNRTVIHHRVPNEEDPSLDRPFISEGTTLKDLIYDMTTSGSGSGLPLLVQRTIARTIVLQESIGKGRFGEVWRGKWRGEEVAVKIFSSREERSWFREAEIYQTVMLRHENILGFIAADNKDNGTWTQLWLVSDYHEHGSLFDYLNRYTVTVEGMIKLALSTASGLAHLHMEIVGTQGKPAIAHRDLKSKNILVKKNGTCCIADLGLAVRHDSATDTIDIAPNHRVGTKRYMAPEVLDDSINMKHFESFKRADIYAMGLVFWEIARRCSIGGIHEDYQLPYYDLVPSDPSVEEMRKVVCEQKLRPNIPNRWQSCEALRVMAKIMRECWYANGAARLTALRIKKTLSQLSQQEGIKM
Source text: Compound N was compared to Compound C in a number of in vitro assays.

[2] = test system: CMV responsive human PBMCs; assay: Cytokine secretion assay (IFN-γ) with CMV antigens; format: cell-based; details: 1 nM TGF-β, 1 ng/ml each agent, 48 hours
Description: In a 96-well round bottom plate, 1.5×10^5 CMV responsive human PBMCs (Astarte Biologics) were cultured with 1.5 μg/ml CMV antigens (Astarte Biologics) in serum free medium for 48 hours alone or in the presence of (i) 1 nM TGF-β, (ii) 1 nM TGF-β and T3A #5 at 1 ng/ml, (iii) 1 nM TGF-β and pembrolizumab at 1 ng/ml, (iv) 1 nM TGF-β, T3A #5 at 1 ng/ml, and pembrolizumab at 1 ng/ml, or (v) 1 nM TGF-β and isotype control antibody (negative control). IFN-γ levels were measured in the supernatants using a R&D ELISA kit.

| Molecule | reversal of TGFβ-mediated inhibition of T cell proliferation ([1]; in words) | Experiment 1 IC50 (nM) ([1]; 1 nM TGF-β1, 72 hours) | other results |
| --- | --- | --- | --- |
| CNCCOc1ccc(-c2cc(-c3c[nH]nc3-c3cccc(C)n3)ccn2)cc1 [Compound C, N-methyl-2-(4-{4-[3-(6-methylpyridin-2-yl)-1H-pyrazol-4-yl]pyridin-2-yl}phenoxy)ethan-1-amine] | reversed TGFβ-mediated inhibition of T cell proliferation | – | potency relative to Compound N in the recombinant assays (ALK5): 10 fold |
| pembrolizumab: T cell checkpoint inhibitor (anti-PD1, Merck) | – | – | IFN-γ levels [2]: increase IFN-γ levels |
| CCNC(=O)c1ccc2c(c1)NC(=O)/C2=C(\Nc1ccc(N(CCNC)S(C)(=O)=O)cc1)c1ccccc1 [Compound D, (Z)-N-ethyl-3-(((4-(N-(2-(methylamino)ethyl)methylsulfonamido)phenyl)amino)(phenyl)methylene)-2-oxoindoline-6-carboxamide] | – | Value not obtained | Experiment 2 IC50 (nM) ([1]; Experiment 2, 1 nM TGF-β1, 72 hours): Value not obtained; IC50 value in mouse CD4+ T cells ([1]; two different experiments, in words): not obtained |
| CNCCOc1ccc(-c2cc(-c3c[nH]nc3-c3ccccn3)ccn2)cc1 [Compound B, N-methyl-2-(4-{4-[3-(pyridin-2-yl)-1H-pyrazol-4-yl]pyridin-2-yl}phenoxy)ethan-1-amine] | reversed TGFβ-mediated inhibition of T cell proliferation | – | – |
| Cc1cccc(-c2nc(N)sc2-c2ccc3ncccc3n2)n1 [Compound A, 4-(6-methylpyridin-2-yl)-5-(1,5-naphthyridin-2-yl)-1,3-thiazol-2-amine] | did not show consistent effects | Value not obtained | – |
